Measured values from patent US20250332173A1, “COMPOUNDS AND METHODS FOR MODULATING NUCLEIC ACID SPLICING” (REMIX THERAPEUTICS INC., priority 2021, published 2025).
pIC50: −log10 of the molar value. Where two headings read alike, the source gives them in different places.

Key:
Assay type in all cases: cell-based, human
Target C = assay: HiBiT protein abundance assay, Target C (Promega Nano-Glo HiBiT Lytic Detection System, knock-in K562 cell line); details: Homo sapiens, K562, 24 h, HiBiT K562 cell line, 24 hours, top dose 10 μM; read-out: Effect on protein abundance, Target C (IC50 category)
In short: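 HiBiT knock-in K562 cells (10,000/well) were treated for 24 h at 37 °C with a 10-point 3-fold dilution series, top final concentration 10 μM, DMSO ≤0.25%. Lytic HiBiT luminescence was read, normalized to unmodified K562 and DMSO-treated controls, and IC50 was interpolated from a four-parameter logistic fit.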

MYB mRNA = assay: RT-qPCR splicing assay, MYB canonical junction (CJ) and alternative junction (AJ) mRNA; details: Homo sapiens; for AC50: increase in MYB alternative junction (AJ) mRNA, read-out: MYB AJ AC50
In short: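 Following a 24-hour incubation of A673 or K562 cells with serially diluted compound (3-fold steps, highest final 10 uM), the lysates undergo cDNA synthesis plus qPCR. Canonical and alternative junctions are each quantified against PPIA, GAPDH or GUSB.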

MYB = assay: HiBiT protein abundance assay, MYB HiBiT K562 cell line; details: 24 hours, top dose 10 μM
In short: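 Endogenous targets in K562 knock-in lines carried a HiBiT tag and were treated for 24 h at 37 °C with 10-point 3-fold dilutions (top 10 μM final, DMSO ≤0.25%). Abundance was read as lytic Nano-Glo HiBiT luminescence. IC50 came from a four-parameter logistic fit of normalized response.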

[1] = canonical junction qPCR panel, Table 5, read-out: MYB (decrease in CJ mRNA levels, IC50)
[2] = decrease in MYB canonical junction (CJ) mRNA, RT-qPCR, read-out: MYB CJ IC50
[3] = HiBiT K562 cell line, read-out: Effect on protein abundance, MYB (IC50 category)
[4] = Table 5 panel, canonical junction qPCR, compound concentration having 50% response in CJ decrease, read-out: MYB IC50 (decrease in CJ mRNA levels)
[5] = HiBiT lytic detection, modified K562 cells, read-out: Effect on protein abundance, MYB (IC50)

| Compound | pIC50 (Target C) | pIC50 (MYB mRNA; [1]) | pIC50 (MYB mRNA; [2]) | pIC50 (MYB; [3]) | pIC50 (MYB mRNA; [4]) | pIC50 (MYB; [5]) | AC50 (MYB mRNA; RT-qPCR) [µM] |
| --- | --- | --- | --- | --- | --- | --- | --- |
| Cc1c(O)c(-c2ncc3c(=O)n(C4CCNC4)ccc3n2)cc2cn(C)nc12 (stereo in doubt) [Compound 1439, (6R)-2-(6-hydroxy-2,7-dimethyl-indazol-5-yl)-6-pyrrolidin-3-yl-pyrido[4,3-d]pyrimidin-5-one] | < 5.00 | 6.00 to 7.00 | 6.00 to 7.00 | 6.00 to 7.00 | – | – | 0.1 to 1 |
| Cc1c(O)c(-c2ncc3c(=O)n(C4CCNC4)ccc3n2)cc2cn(C)nc12 (stereo in doubt) [Compound 1440, (6S)-2-(6-hydroxy-2,7-dimethyl-indazol-5-yl)-6-pyrrolidin-3-yl-pyrido[4,3-d]pyrimidin-5-one] | < 5.00 | 6.00 to 7.00 | 6.00 to 7.00 | 6.00 to 7.00 | – | – | 0.1 to 1 |
| Cc1c(O)c(-c2ncc3c(=O)n([C@@H]4CC5CC4CN5)ccc3n2)cc2cn(C)nc12 (stereo in doubt) [Compound 1443, 6-[(1R,4R,5R)-2-azabicyclo[2.2.1]heptan-5-yl]-2-(6-hydroxy-2,7-dimethyl-indazol-5-yl)pyrido[4,3-d]pyrimidin-5-one] | 5.00 to 6.00 | 6.00 to 7.00 | 6.00 to 7.00 | 6.00 to 7.00 | – | – | 0.1 to 1 |
| Cc1c(O)c(-c2ncc3c(=O)n(C4C[C@H]5C[C@@H]4CN5)ccc3n2)cc2cn(C)nc12 (stereo in doubt) [Compound 1444, 6-[(1R,4R,5R)-2-azabicyclo[2.2.1]heptan-5-yl]-2-(6-hydroxy-2,7-dimethyl-indazol-5-yl)pyrido[4,3-d]pyrimidin-5-one] | 6.00 to 7.00 | 6.00 to 7.00 | 6.00 to 7.00 | 6.00 to 7.00 | – | – | 0.1 to 1 |
| Cn1cc2cc(-c3ccc4c(=O)n(C5CCNCC5)cnc4c3)ccc2n1 [Compound 182] | 5.00 to 6.00 | – | 6.00 to 7.00 | 6.00 to 7.00 | 6.00 to 7.00 | – | 0.1 to 1 |
| Cc1cn2nc(-c3ccc4c(=O)n(C5CCNCC5)ncc4c3)cc(C)c2n1 [Compound 186] | 6.00 to 7.00 | – | 6.00 to 7.00 | 6.00 to 7.00 | 6.00 to 7.00 | – | < 0.1 |
| Cc1cn2nc(-c3ccc4c(c3F)CCN(C3CCNCC3)C4=O)cc(C)c2n1 [Compound 188] | 5.00 to 6.00 | – | 6.00 to 7.00 | 6.00 to 7.00 | 5.00 to 6.00 | – | 1 to 10 |
| CN1CCC(Nc2ccc3c(=O)n(-c4ccc5cn(C)nc5c4)cnc3c2)CC1 [Compound 203] | < 5.00 | – | < 5.00 | < 5.00 | < 5.00 | – | > 10 |
| Cc1c(O)c(-c2ncc3c(=O)n(C4CCNCC4)cc(C)c3n2)cc2cn(C)nc12 [Compound 1191] | > 7.00 | – | > 7.00 | 5.00 to 6.00 | > 7.00 | – | < 0.1 |
| Cc1cn2cc(-c3cc4ccn(C5CCNCC5)c(=O)c4cn3)cc(F)c2n1 [Compound 1196] | 6.00 to 7.00 | – | > 7.00 | > 7.00 | > 7.00 | – | < 0.1 |
| Cc1cn2nc(-c3cc4ccn(C5CCNCC5)c(=O)c4cn3)cc(C)c2n1 [Compound 1198, 6-(2,8-dimethylimidazo[1,2-b]pyridazin-6-yl)-2-(piperidin-4-yl)-2,7-naphthyridin-1(2H)-one] | 6.00 to 7.00 | – | 6.00 to 7.00 | 6.00 to 7.00 | 6.00 to 7.00 | – | 0.1 to 1 |
| Cc1cc(-c2cc3ccn(C4CCNCC4)c(=O)c3cn2)cc2cn(C)nc12 [Compound 1204, 6-(2,7-dimethyl-2H-indazol-5-yl)-2-(piperidin-4-yl)-2,7-naphthyridin-1(2H)-one] | 5.00 to 6.00 | – | 6.00 to 7.00 | 6.00 to 7.00 | 6.00 to 7.00 | – | 0.1 to 1 |
| CCN1CCC(n2ccc3cc(-c4cc(C)c5nn(C)cc5c4)ncc3c2=O)CC1 [Compound 1207, 6-(2,7-dimethyl-2H-indazol-5-yl)-2-(1-ethylpiperidin-4-yl)-2,7-naphthyridin-1(2H)-one] | 5.00 to 6.00 | – | 5.00 to 6.00 | 5.00 to 6.00 | 5.00 to 6.00 | – | 1 to 10 |
| Cc1cc(-c2cc3ccn(C4CCN(C5CC5)CC4)c(=O)c3cn2)cc2cn(C)nc12 [Compound 1208, 2-(1-cyclopropylpiperidin-4-yl)-6-(2,7-dimethyl-2H-indazol-5-yl)-2,7-naphthyridin-1(2H)-one] | < 5.00 | – | 5.00 to 6.00 | 5.00 to 6.00 | 5.00 to 6.00 | – | 1 to 10 |
| Cn1cc2cc(-c3ccc4c(=O)n(C5CCNC6(CC6)C5)ncc4n3)c(O)cc2n1 (stereo not shown) [Compound 1306] | – | 6.00 to 7.00 | 6.00 to 7.00 | – | – | 6.00 to 7.00 | 0.1 to 1 |
| CCN1CCC(n2ncc3nc(-c4cc(C)c5nc(C)cn5n4)ccc3c2=O)CC1 [Compound 1308] | – | 6.00 to 7.00 | 6.00 to 7.00 | – | – | 6.00 to 7.00 | 0.1 to 1 |
| Cc1cn2nc(-c3ccc4c(=O)n(C5CCN(CCF)CC5)ncc4n3)cc(C)c2n1 [Compound 1309] | – | 6.00 to 7.00 | 6.00 to 7.00 | – | – | 6.00 to 7.00 | 0.1 to 1 |
| CCN1CCC(n2ncc3nc(-c4cc5cn(C)nc5cc4O)ccc3c2=O)CC1 [Compound 1310] | – | 5.00 to 6.00 | 5.00 to 6.00 | – | – | 5.00 to 6.00 | 1 to 10 |
| Cc1cn2nc(-c3ccc4c(=O)n(C5CCN(C)CC5)ncc4n3)cc(C)c2n1 [Compound 1311] | – | 6.00 to 7.00 | 6.00 to 7.00 | – | – | 6.00 to 7.00 | 0.1 to 1 |

Now from value to compound, other results behind:

| pIC50 (Target C) | pIC50 (MYB mRNA; [1]) | pIC50 (MYB mRNA; [2]) | pIC50 (MYB; [3]) | pIC50 (MYB mRNA; [4]) | pIC50 (MYB; [5]) | Compound | AC50 (MYB mRNA; RT-qPCR) [µM] |
| --- | --- | --- | --- | --- | --- | --- | --- |
| < 5.00 | 5.00 to 6.00 | 5.00 to 6.00 | 5.00 to 6.00 | – | – | Cc1c(O)c(-c2ncc3c(=O)n([C@@H]4C[C@H]5C[C@@H]4CN5)ccc3n2)cc2cn(C)nc12 (stereo in doubt) [Compound 1446, 6-[(1R,4R,5R)-2-azabicyclo[2.2.1]heptan-5-yl]-2-(6-hydroxy-2,7-dimethyl-indazol-5-yl)pyrido[4,3-d]pyrimidin-5-one] | 1 to 10 |
| < 5.00 | – | < 5.00 | < 5.00 | < 5.00 | – | Cn1cc2ccc(-n3cnc4cc(NC5CCNCC5)ccc4c3=O)cc2n1 [Compound 204] | > 10 |
| 5.00 to 6.00 | – | 6.00 to 7.00 | 5.00 to 6.00 | 5.00 to 6.00 | – | Cn1cc2cc(-c3cc4ccn(C5CCNCC5)c(=O)c4cn3)c(O)c(F)c2n1 [Compound 1199] | 1 to 10 |
| 6.00 to 7.00 | – | 6.00 to 7.00 | 6.00 to 7.00 | 6.00 to 7.00 | – | Cc1cn2cc(-c3cc4ccn(C5CCNCC5)c(=O)c4cn3)nc(C)c2n1 [Compound 1205, 6-(2,8-dimethylimidazo[1,2-a]pyrazin-6-yl)-2-(piperidin-4-yl)-2,7-naphthyridin-1(2H)-one] | 0.1 to 1 |
| < 5.00 | – | 5.00 to 6.00 | 6.00 to 7.00 | 6.00 to 7.00 | – | Cc1cc(-c2cc3ccn(C4CCN(C)CC4)c(=O)c3cn2)cc2cn(C)nc12 [Compound 1206, 6-(2,7-dimethyl-2H-indazol-5-yl)-2-(1-methylpiperidin-4-yl)-2,7-naphthyridin-1(2H)-one] | 0.1 to 1 |
| 6.00 to 7.00 | – | 6.00 to 7.00 | 6.00 to 7.00 | 6.00 to 7.00 | – | Cc1cc(-c2cc3ccn(C4CCN(C5COC5)CC4)c(=O)c3cn2)cc2cn(C)nc12 [Compound 1209, 6-(2,7-dimethyl-2H-indazol-5-yl)-2-(1-(oxetan-3-yl)piperidin-4-yl)-2,7-naphthyridin-1(2H)-one-1] | 0.1 to 1 |
| < 5.00 | – | 6.00 to 7.00 | 5.00 to 6.00 | 5.00 to 6.00 | – | Cc1cc(-c2cc3ccn(C4CCN(CCO)CC4)c(=O)c3cn2)cc2cn(C)nc12 [Compound 1210, 6-(2.7-dimethyl-2H-indazol-5-yl)-2-(1-(2-hydroxyethyl)piperidin-4-yl)-2,7-naphthyridin-1(2H)-one] | 1 to 10 |
| 6.00 to 7.00 | – | > 7.00 | > 7.00 | 6.00 to 7.00 | – | Cn1cc2cc(-c3ncc4c(=O)n(C5CCNCC5)ccc4n3)c(O)cc2n1 [Compound 1211] | 0.1 to 1 |
| – | – | 6.00 to 7.00 | 6.00 to 7.00 | 6.00 to 7.00 | – | Cc1cn2cc(-c3ncc4c(=O)n([C@H]5CCNC5)ccc4n3)cc(F)c2n1 [Compound 1220] | 0.1 to 1 |
| – | > 7.00 | > 7.00 | – | – | > 7.00 | Cc1cn2nc(-c3ccc4c(=O)n(C5CCNCC5)ncc4n3)cc(C)c2n1 [Compound 1247] | < 0.1 |
| – | 5.00 to 6.00 | 5.00 to 6.00 | – | – | 5.00 to 6.00 | CN1CCC(n2ncc3nc(-c4cc5cn(C)nc5cc4O)ccc3c2=O)CC1 [Compound 1307] | 1 to 10 |
